Source: US11312769B2, “Anti-TMEFF1 antibodies and antibody drug conjugates” (Bluefin BioMedicine, Inc., priority 2017, dated 2022)

Legend:
H526 cells = test: Growth inhibition and isobologram/combination index, H526; format: cell-based, human; conditions: for effect of combination with 30C10-PBD: H526 cells; for IC50: H526, 5 days, alone
Method: (§1) Two SCLC cell lines H526 and H1048, which expresses ˜2,500 copies of TMEFF1 on the cell surface per cell, were seeded onto 96 well plates at 2,000 cells/well on the day of treatment. To distinguish synergy from additivity of the combination of 30C10-PBD with niraparib (selleckchem, Cat # S2741), etoposide (Cell Signaling Technology, Cat #2200S) or cisplatin (Sigma, Cat # P4394), for each combination, a specific isobologram was constructed and the combination-index was calculated as described by Chou, TC and Talalay P (Quanttative analysis of dose-effect relationships: the combined effects of multiple drugs or enzyme inhibitors, Adv Enzyme Regul, 1984). IC50 value was defined as the drug concentration reducing by 50% the growth of treated cells compared with control. IC50 values of each drug was determined by plating H526 or H1048 cells and adding 30C10-PBD, niraparib, etoposide or cisplatin at 10-fold dilutions spanning their probable range of activity. Concentrations ranging from 0.0001-1 ug/ml were used for 30C10-PBD, from 0.01 to 100 uM for Niraparib, from 0.001-10 uM for etoposide and from 0.01-100 uM for cisplatin. Cell viability was measured 5 days later by CellTiter Glo® Luminescent Cell viability Assay™ (Promega, Madison, Wis.) according to manufacturer's instructions. Each IC50 was graphically derived from the growth curve graphed by Prism™ showing percent survival vs log drug concentrations.
(§2) Combination-index (CI) was defined as follows: CI=[C]A50/IC50A+[C]B50/IC50B, where [C]A50 and [C]B50 are the concentrations in combination inducing the IC50 effect. A CI of less than, equal to, or more than 1 indicates, respectively, synergy, additivity, or antagonism.
(§3) The 50% growth-inhibitory activity of the drug combinations was measured after 5 days of treatment. The line of additivity for the isobologram was constructed by interpolating the two points corresponding to the IC50 of the two drugs alone. Graphically, synergy, additivity, and antagonism are indicated by a point plotted below, on, or above the line of additivity, respectively.

H1048 cells = test: Growth inhibition and isobologram/combination index, H1048; format: cell-based, human; conditions: for effect of combination with 30C10-PBD: H1048 cells; for IC50: H1048, 5 days, alone
Method: as §1, §2, §3

[1] = H526, combination with 30C10-PBD 0.3 ng/ml
[2] = H526, combination with 30C10-PBD 0.6 ng/ml
[3] = H1048, combination with 30C10-PBD 0.1 ng/ml
[4] = H1048, combination with 30C10-PBD 0.3 ng/ml

SMILES | CI (H526 cells; [1]) | effect (H526 cells; [1]) | CI (H526 cells; [2]) | effect (H526 cells; [2]) | effect of combination with 30C10-PBD (H526 cells) | IC50 (H526 cells; Homo sapiens, NCI-H526, 120 h) [nM] | CI (H1048 cells; [3]) | effect (H1048 cells; [3]) | CI (H1048 cells; [4]) | effect (H1048 cells; [4]) | effect of combination with 30C10-PBD (H1048 cells) | IC50 (H1048 cells; Homo sapiens, NCI-H1048, 120 h) [nM] | IC50 (H526 cells) [nM] | IC50 (H1048 cells) [nM] | effect (H1048 cells; H1048, combination with 30C10-PBD 0.1 ng/ml, listed as etoposide) | effect (H1048 cells; H1048, combination with 30C10-PBD 0.3 ng/ml, listed as etoposide)
NC(=O)c1cccc2cn(-c3ccc([C@@H]4CCCNC4)cc3)nc12 [Niraparib, niraparib] | 0.762 | synergy (A CI of less than, equal to, or more than 1 indicates, respectively, synergy, additivity, or antagonism) | 0.619 | synergy (A CI of less than, equal to, or more than 1 indicates, respectively, synergy, additivity, or antagonism) | Synergistic effect | 3240 | 0.949 | synergy (A CI of less than, equal to, or more than 1 indicates, respectively, synergy, additivity, or antagonism) | 0.888 | synergy (A CI of less than, equal to, or more than 1 indicates, respectively, synergy, additivity, or antagonism) | Synergistic effect | 1070 | – | – | – | –
COc1cc([C@@H]2c3cc4c(cc3[C@@H](O[C@@H]3O[C@@H]5CO[C@@H](C)O[C@H]5[C@H](O)[C@H]3O)[C@H]3COC(=O)[C@H]23)OCO4)cc(OC)c1O [Etoposide, etoposide] | 0.847 | synergy (A CI of less than, equal to, or more than 1 indicates, respectively, synergy, additivity, or antagonism) | 0.801 | synergy (A CI of less than, equal to, or more than 1 indicates, respectively, synergy, additivity, or antagonism) | synergistic effect | – | 0.932 | synergy (A CI of less than, equal to, or more than 1 indicates, respectively, synergy, additivity, or antagonism) | 0.998 | additive | – | – | 330 | 160 | synergistic effect | additive effect
N.N.[Cl][Pt][Cl] [Cisplatin, cisplatin] | 0.865 | synergy (A CI of less than, equal to, or more than 1 indicates, respectively, synergy, additivity, or antagonism) | 0.703 | synergy (A CI of less than, equal to, or more than 1 indicates, respectively, synergy, additivity, or antagonism) | synergistic effects | – | 0.985 | additive | 1.008 | additive | additive effects | – | 240 | 620 | – | –
